Measured values from US20020132220A1, “Use of selectin antagonists in organ preservation solutions” (priority 2000, published 2002).
Counter-ions that a name gives are not always drawn.

Key:
[1] = test system: rat kidney; experiment: Syngeneic rat kidney transplantation (Lewis to Lewis) after flushing the kidney with perfusate; ischemia/reperfusion injury; type: in vivo; conditions: for Blood Urea Nitrogen / Serum Creatinine / GFR: syngeneic transplantation; for GFR: 4° C., 30 min on ice
Protocol: (§1) To determine the effects of bimosiamose on the ischemia/reperfusion component of transplant injury, the following experiment was performed. To test bimosiamose solutions, a rat kidney is flushed with a solution containing bimosiamose (compound 1, 1,6-bis-(3-(3-carbomethylphenyl)-4-(2-α-D-mannopyranosyloxy)phenyl)hexane disodium salt, prepared according to the procedure described in U.S. Pat. No. 5,919,768) upon harvest from a donor and prior to placement into a recipient, to determine whether or not there is any protective effect. Rats for both examples were supplied by Harlan. A syngeneic transplantation model (Lewis rat to Lewis rat) was utilized. In this model, the immune system mediated rejection component is not relevant since the donor and recipient are of similar genetic background (syngeneic). In this experiment, test bimosiamose solutions were made up in a concentration of 100 mg/ml in phosphate-buffered saline solution, at a pH of 7.4. Test amounts of bimoisamose solution (as indicated in column 1 of Table 1) were added to Collins solution, to form the test perfusate solution. The Collins solution was purchased from Baxter, and contained 740 mg dibasic potassium phosphate, 205 mg monobasic potassium phosphate, 112 mg potassium chloride and 84 mg sodium bicarbonate per 100 mL solution, at pH 7.4. The test perfusate solution was cooled to a temperature of 4° C., and then 2 ml was utilized to perfuse the organ, which was afterwards maintained on ice for thirty minutes. Perfusion pressure was at or below physiologic pressure during the perfusion.
(§2) Following the 30 minute cold-temperature perfusion, transplantation was performed by transplanting a graft organ using end-to-end anastomosis of the renal artery, vein and ureter, with a simultaneous contralateral nephrectomy, wherein when the graft fails, the recipient does shortly thereafter.
This injury is the result of 30 minutes of cold ischemia with an additional 30 minutes of warm ischemia during the surgical re-anastomosis. N in the first column of Table 1 indicates sample size, i.e.—when N=6, six animals were tested. […] These observations are supported by reductions in serum creatinine and blood urea nitrogen (see Table 1). Therefore, Table 1 illustrates a statistically significant improvements associated with bimosiamose treatment.

[2] = test system: rat kidney; experiment: Allogeneic rat kidney transplantation (Lewis to ACI) after flushing the kidney with perfusate; graft/recipient survival; type: in vivo, Lewis rats to ACI rats; conditions: for Survival: allogeneic transplantation, no immunosuppression
Protocol: as §1, §2
The procedure described in Example 1 was also utilized to determine what effect bimosiamose solutions would have when transplantation between donor and recipient were not matched for histocompatibility (test rats are allogenic). […]

[3] = kidney perfused with 0.5 mg/ml in Collins solution
[4] = kidney perfused with 1.0 mg/ml in Collins solution

O=C(O)Cc1cccc(-c2cc(CCCCCCc3ccc(OC4OC(CO)C(O)C(O)C4O)c(-c4cccc(CC(=O)O)c4)c3)ccc2OC2OC(CO)C(O)C(O)C2O)c1 [Cmpd. 1, 1,6-bis-(3-(3-carbomethylphenyl)-4-(2-α-D-mannopyranosyloxy)phenyl)hexane disodium salt]
Renal function (in words) ([1]; flushing the organ with a solution containing 1 mg/2 ml or 2 mg/2 ml): preservation of renal function | Blood Urea Nitrogen [1, 3]: 49.8 ± 24.2 mg/dL | Serum Creatinine [1, 3]: 0.62 ± 0.23 mg/dL | GFR [1, 3]: 0.70 ± 0.37 mL/min | Blood Urea Nitrogen [1, 4]: 32.0 ± 4.6 mg/dL | Serum Creatinine [1, 4]: 0.48 ± 0.08 mg/dL | GFR [1, 4]: 0.91 ± 0.08 mL/min | Survival ([2]; kidney flushed with 0.5 mg/ml): 18.50 ± 6.45 days | Survival ([2]; kidney flushed with 1.0 mg/ml): 30.25 ± 13.25 days | Graft function/survival (in words) ([2]; renal allografts flushed with solution, without standard immunosuppressive agents): dose-related preservation of graft function/survival
